From ChEMBL document CHEMBL1128936, “Protein-ligand interactions. 6 nicotinic acetylcholine receptor agonist activity of isoquinoline alkaloids” (Bioorg Med Chem Lett, 1996) come the findings set out here.

Values joined by “and” are separate entries in the source; they are usually repeats but may differ in a detail not shown here. Identical values can stand only once.

For experiment [1], the target named is T1, Acetylcholine receptor subunit delta (Torpedo californica) (UniProt P02718).
T1 sequence (whole entry): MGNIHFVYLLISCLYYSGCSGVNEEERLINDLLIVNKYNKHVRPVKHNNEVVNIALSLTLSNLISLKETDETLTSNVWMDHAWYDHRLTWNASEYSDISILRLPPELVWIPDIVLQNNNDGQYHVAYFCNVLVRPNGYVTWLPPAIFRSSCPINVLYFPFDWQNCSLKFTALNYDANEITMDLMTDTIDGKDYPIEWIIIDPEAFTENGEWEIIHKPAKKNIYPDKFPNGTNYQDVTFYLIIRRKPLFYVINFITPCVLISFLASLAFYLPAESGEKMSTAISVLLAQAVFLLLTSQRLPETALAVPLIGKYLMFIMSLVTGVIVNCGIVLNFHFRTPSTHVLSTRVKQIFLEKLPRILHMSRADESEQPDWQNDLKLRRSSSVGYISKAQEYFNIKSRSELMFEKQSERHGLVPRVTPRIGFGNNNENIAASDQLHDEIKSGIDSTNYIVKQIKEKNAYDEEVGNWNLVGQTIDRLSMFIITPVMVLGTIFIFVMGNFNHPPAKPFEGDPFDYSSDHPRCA
As to the kind of experiment: Compound was tested for its binding affinity against nicotinic acetylcholine receptor by fluorimetry assay. Particulars: torpedo fuscomaculata.

Experiment [2] concerns the target T1, Acetylcholine receptor subunit delta (Torpedo californica). Briefly: Compound was tested for its binding affinity against nicotinic acetylcholine receptor by spectrometry assay. Particulars: torpedo fuscomaculata.

In experiment [1], `COc1ccc(Cc2nccc3cc(OC)c(OC)cc23)cc1OC` gave a Bmax of 0.27 µM and a Kd1 of 1.7 µM. In experiment [2], the Bmax is 2.07 µM; the Kd1 came to 2.4 µM; the Kd2 is 31 µM and 29 µM.
Consider `c1ccc2cnccc2c1`, for which, in experiment [1], the Bmax stood at 0.31 µM, the Kd1 stood at 3.1 µM and the Kd2 was determined as 49 µM. In experiment [2], this compound yielded a Bmax of 1.86 µM, a Kd1 of 3.3 µM and a Kd2 of 51.6 µM.
In experiment [1], `COc1ccc2cc3[n+](cc2c1OC)CCc1cc2c(cc1-3)OCO2` yielded a Bmax of 0.31 µM and a Kd1 of 0.77 µM. In experiment [2], the Bmax was determined as 2.14 µM; the Kd1 came to 0.84 µM; the Kd2 is 27 µM and 34 µM.
Regarding `CC(=O)OCC[N+](C)(C)C`, in experiment [1], the Kd1 was found to be 0.12 µM and the Kd2 came to 2.3 µM. Also, in experiment [2], the Kd1 is 0.18 µM and the Kd2 is 3 µM.
On the same counts, the results for `COc1cc2c3cc1Oc1cc(ccc1O)C[C@@H]1c4c(cc(OC)c(O)c4Oc4ccc(cc4)C[C@@H]3N(C)CC2)CC[N+]1(C)C` are 0.05 µM, 11.4 µM, 0.03 µM and 8 µM.
